Data published in the NIST ThermoML archive (doi:10.1016/j.jct.2005.01.007).
Values joined by “and” are separate entries in the source; they are usually repeats but may differ in a detail not shown here. Equal values may be shown once. Numbers after ± are expanded uncertainties.

Tests used:
[1] = refractive index (Na D-line) (dimensionless); conditions: 298.15 K; 101.33 kPa; Liquid; Standard Abbe refractometry
[2] = 101 kPa, Liquid
[3] = xn = mol fraction of the nth substance listed; conditions: 101 kPa, Liquid

c1ccccc1 [benzene]
refractive index [1]: 1.4979 ± 0.0007
mass density ([2]; 298.15 K): 873.62 ± 0.42 kg/m3
mass density ([2]; 328.15 K): 841.52 ± 0.48 kg/m3

c1ccccc1 [benzene] + CCC(=O)c1ccccc1
mass density ([3]; 298.15 K, x1 = 1): 873.62 ± 0.42 kg/m3
mass density ([3]; 328.15 K, x1 = 1): 841.52 ± 0.48 kg/m3

CCCCc1ccccc1 [butylbenzene]
refractive index [1]: 1.4874 ± 0.0007
mass density ([2]; 298.15 K): 856.23 ± 0.48 kg/m3
mass density ([2]; 328.15 K): 832.29 ± 0.52 kg/m3

CCCCc1ccccc1 [butylbenzene] + CCC(=O)c1ccccc1
mass density ([3]; 298.15 K, x1 = 1): 856.23 ± 0.48 kg/m3
mass density ([3]; 328.15 K, x1 = 1): 832.29 ± 0.52 kg/m3

CCC(=O)c1ccccc1 [ethyl phenyl ketone]
refractive index [1]: 1.5245 ± 0.0007
mass density ([2]; 298.15 K): 1005.24 ± 0.22 kg/m3 and 1005.26 ± 0.22 kg/m3 and 1005.29 ± 0.22 kg/m3
mass density ([2]; 328.15 K): 979.5 ± 0.24 kg/m3 [middle of 4 runs]

CCC(=O)c1ccccc1 [ethyl phenyl ketone] + CCCCc1ccccc1
mass density ([3]; 298.15 K, x2 = 0): 1005.29 ± 0.22 kg/m3
mass density ([3]; 298.15 K, x2 = 0.0906): 989.98 ± 0.23 kg/m3
mass density ([3]; 298.15 K, x2 = 0.1842): 974.56 ± 0.26 kg/m3
mass density ([3]; 298.15 K, x2 = 0.2739): 960.14 ± 0.29 kg/m3
mass density ([3]; 298.15 K, x2 = 0.3688): 945.31 ± 0.32 kg/m3
mass density ([3]; 298.15 K, x2 = 0.4531): 932.45 ± 0.34 kg/m3
mass density ([3]; 298.15 K, x2 = 0.5519): 917.76 ± 0.37 kg/m3
mass density ([3]; 298.15 K, x2 = 0.6164): 908.4 ± 0.38 kg/m3
mass density ([3]; 298.15 K, x2 = 0.711): 894.97 ± 0.41 kg/m3
mass density ([3]; 298.15 K, x2 = 0.8053): 881.97 ± 0.43 kg/m3
mass density ([3]; 298.15 K, x2 = 0.9044): 868.69 ± 0.46 kg/m3
mass density ([3]; 328.15 K, x2 = 0): 979.54 ± 0.24 kg/m3
mass density ([3]; 328.15 K, x2 = 0.0906): 964.4 ± 0.27 kg/m3
mass density ([3]; 328.15 K, x2 = 0.1842): 949.13 ± 0.3 kg/m3
mass density ([3]; 328.15 K, x2 = 0.2739): 934.89 ± 0.33 kg/m3
mass density ([3]; 328.15 K, x2 = 0.3688): 920.21 ± 0.36 kg/m3
mass density ([3]; 328.15 K, x2 = 0.4531): 907.51 ± 0.38 kg/m3
mass density ([3]; 328.15 K, x2 = 0.5519): 893 ± 0.41 kg/m3
mass density ([3]; 328.15 K, x2 = 0.6164): 883.77 ± 0.43 kg/m3
mass density ([3]; 328.15 K, x2 = 0.711): 870.51 ± 0.45 kg/m3
mass density ([3]; 328.15 K, x2 = 0.8053): 857.68 ± 0.48 kg/m3
mass density ([3]; 328.15 K, x2 = 0.9044): 844.57 ± 0.5 kg/m3

CCC(=O)c1ccccc1 [ethyl phenyl ketone] + CCc1ccccc1
mass density ([3]; 298.15 K, x2 = 0): 1005.29 ± 0.22 kg/m3
mass density ([3]; 298.15 K, x2 = 0.1025): 992.18 ± 0.23 kg/m3
mass density ([3]; 298.15 K, x2 = 0.1878): 981.02 ± 0.24 kg/m3
mass density ([3]; 298.15 K, x2 = 0.2741): 969.49 ± 0.26 kg/m3
mass density ([3]; 298.15 K, x2 = 0.3668): 956.85 ± 0.29 kg/m3
mass density ([3]; 298.15 K, x2 = 0.4491): 945.37 ± 0.31 kg/m3
mass density ([3]; 298.15 K, x2 = 0.5504): 930.94 ± 0.33 kg/m3
mass density ([3]; 298.15 K, x2 = 0.6359): 918.44 ± 0.36 kg/m3
mass density ([3]; 298.15 K, x2 = 0.7246): 905.22 ± 0.38 kg/m3
mass density ([3]; 298.15 K, x2 = 0.831): 888.99 ± 0.41 kg/m3
mass density ([3]; 298.15 K, x2 = 0.9093): 876.76 ± 0.43 kg/m3
mass density ([3]; 328.15 K, x2 = 0): 979.5 ± 0.24 kg/m3
mass density ([3]; 328.15 K, x2 = 0.1025): 966.3 ± 0.27 kg/m3
mass density ([3]; 328.15 K, x2 = 0.1878): 955.11 ± 0.29 kg/m3
mass density ([3]; 328.15 K, x2 = 0.2741): 943.55 ± 0.31 kg/m3
mass density ([3]; 328.15 K, x2 = 0.3668): 930.84 ± 0.33 kg/m3
mass density ([3]; 328.15 K, x2 = 0.4491): 919.32 ± 0.36 kg/m3
mass density ([3]; 328.15 K, x2 = 0.5504): 904.84 ± 0.38 kg/m3
mass density ([3]; 328.15 K, x2 = 0.6359): 892.32 ± 0.4 kg/m3
mass density ([3]; 328.15 K, x2 = 0.7246): 879.02 ± 0.43 kg/m3
mass density ([3]; 328.15 K, x2 = 0.831): 862.68 ± 0.46 kg/m3
mass density ([3]; 328.15 K, x2 = 0.9093): 850.4 ± 0.48 kg/m3

CCC(=O)c1ccccc1 [ethyl phenyl ketone] + Cc1ccccc1
mass density ([3]; 298.15 K, x2 = 0): 1005.26 ± 0.22 kg/m3
mass density ([3]; 298.15 K, x2 = 0.09253): 995.05 ± 0.21 kg/m3
mass density ([3]; 298.15 K, x2 = 0.1872): 984.09 ± 0.23 kg/m3
mass density ([3]; 298.15 K, x2 = 0.2777): 973.13 ± 0.24 kg/m3
mass density ([3]; 298.15 K, x2 = 0.3634): 962.24 ± 0.26 kg/m3
mass density ([3]; 298.15 K, x2 = 0.4547): 950.09 ± 0.28 kg/m3
mass density ([3]; 298.15 K, x2 = 0.5572): 935.66 ± 0.31 kg/m3
mass density ([3]; 298.15 K, x2 = 0.6402): 923.36 ± 0.33 kg/m3
mass density ([3]; 298.15 K, x2 = 0.7203): 910.9 ± 0.35 kg/m3
mass density ([3]; 298.15 K, x2 = 0.8278): 893.2 ± 0.38 kg/m3
mass density ([3]; 298.15 K, x2 = 0.9099): 878.86 ± 0.41 kg/m3
mass density ([3]; 328.15 K, x2 = 0): 979.48 ± 0.24 kg/m3
mass density ([3]; 328.15 K, x2 = 0.09253): 969.14 ± 0.26 kg/m3
mass density ([3]; 328.15 K, x2 = 0.1872): 958.07 ± 0.27 kg/m3
mass density ([3]; 328.15 K, x2 = 0.2777): 946.96 ± 0.29 kg/m3
mass density ([3]; 328.15 K, x2 = 0.3634): 935.91 ± 0.31 kg/m3
mass density ([3]; 328.15 K, x2 = 0.4547): 923.57 ± 0.33 kg/m3
mass density ([3]; 328.15 K, x2 = 0.5572): 908.94 ± 0.36 kg/m3
mass density ([3]; 328.15 K, x2 = 0.6402): 896.42 ± 0.38 kg/m3
mass density ([3]; 328.15 K, x2 = 0.7203): 883.78 ± 0.4 kg/m3
mass density ([3]; 328.15 K, x2 = 0.8278): 865.77 ± 0.44 kg/m3
mass density ([3]; 328.15 K, x2 = 0.9099): 851.18 ± 0.46 kg/m3

CCC(=O)c1ccccc1 [ethyl phenyl ketone] + c1ccccc1
mass density ([3]; 298.15 K, x2 = 0): 1005.24 ± 0.22 kg/m3
mass density ([3]; 298.15 K, x2 = 0.1079): 995.49 ± 0.21 kg/m3
mass density ([3]; 298.15 K, x2 = 0.1982): 986.83 ± 0.22 kg/m3
mass density ([3]; 298.15 K, x2 = 0.2725): 979.24 ± 0.23 kg/m3
mass density ([3]; 298.15 K, x2 = 0.3691): 968.74 ± 0.25 kg/m3
mass density ([3]; 298.15 K, x2 = 0.4557): 958.59 ± 0.27 kg/m3
mass density ([3]; 298.15 K, x2 = 0.5205): 950.57 ± 0.28 kg/m3
mass density ([3]; 298.15 K, x2 = 0.6278): 936.19 ± 0.3 kg/m3
mass density ([3]; 298.15 K, x2 = 0.7441): 919.01 ± 0.33 kg/m3
mass density ([3]; 298.15 K, x2 = 0.8198): 906.77 ± 0.35 kg/m3
mass density ([3]; 298.15 K, x2 = 0.8966): 893.38 ± 0.38 kg/m3
mass density ([3]; 328.15 K, x2 = 0): 979.46 ± 0.24 kg/m3
mass density ([3]; 328.15 K, x2 = 0.1079): 969.44 ± 0.26 kg/m3
mass density ([3]; 328.15 K, x2 = 0.1982): 960.49 ± 0.27 kg/m3
mass density ([3]; 328.15 K, x2 = 0.2725): 952.7 ± 0.28 kg/m3
mass density ([3]; 328.15 K, x2 = 0.3691): 941.82 ± 0.3 kg/m3
mass density ([3]; 328.15 K, x2 = 0.4557): 931.35 ± 0.32 kg/m3
mass density ([3]; 328.15 K, x2 = 0.5205): 922.98 ± 0.33 kg/m3
mass density ([3]; 328.15 K, x2 = 0.6278): 907.95 ± 0.36 kg/m3
mass density ([3]; 328.15 K, x2 = 0.7441): 889.82 ± 0.39 kg/m3
mass density ([3]; 328.15 K, x2 = 0.8198): 876.8 ± 0.41 kg/m3
mass density ([3]; 328.15 K, x2 = 0.8966): 862.6 ± 0.44 kg/m3

CCc1ccccc1 [ethylbenzene]
refractive index [1]: 1.4931 ± 0.0007
mass density ([2]; 298.15 K): 862.26 ± 0.46 kg/m3
mass density ([2]; 328.15 K): 835.86 ± 0.51 kg/m3

CCc1ccccc1 [ethylbenzene] + CCC(=O)c1ccccc1
mass density ([3]; 298.15 K, x1 = 1): 862.26 ± 0.46 kg/m3
mass density ([3]; 328.15 K, x1 = 1): 835.86 ± 0.51 kg/m3

Cc1ccccc1 [toluene]
refractive index [1]: 1.4941 ± 0.0007
mass density ([2]; 298.15 K): 862.25 ± 0.44 kg/m3
mass density ([2]; 328.15 K): 834.25 ± 0.5 kg/m3

Cc1ccccc1 [toluene] + CCC(=O)c1ccccc1
mass density ([3]; 298.15 K, x1 = 1): 862.25 ± 0.44 kg/m3
mass density ([3]; 328.15 K, x1 = 1): 834.25 ± 0.5 kg/m3
